Source: the NIST ThermoML archive (doi:10.1016/j.jct.2007.07.005)

Conditions: Fluid (supercritical or subcritical phases), vibrating tube

CCCCCO [pentan-1-ol]
Conditions	mass density [kg/m3]
312.96 K, 512 kPa	799.65
312.96 K, 1022 kPa	800.04
312.96 K, 1998 kPa	800.77
312.96 K, 3005 kPa	801.53
312.96 K, 4003 kPa	802.28
312.96 K, 5002 kPa	803.02
312.96 K, 6018 kPa	803.76
312.96 K, 6994 kPa	804.49
312.96 K, 8008 kPa	805.21
312.96 K, 9005 kPa	805.93
312.96 K, 10008 kPa	806.66
312.96 K, 11008 kPa	807.37
312.96 K, 12000 kPa	808.07
312.96 K, 13024 kPa	808.78
312.96 K, 13987 kPa	809.45
312.96 K, 15014 kPa	810.14
312.96 K, 15991 kPa	810.8
312.96 K, 17019 kPa	811.48
312.96 K, 17991 kPa	812.12
312.96 K, 19007 kPa	812.79
312.96 K, 19992 kPa	813.44
312.96 K, 21031 kPa	814.1
312.96 K, 22041 kPa	814.76
312.96 K, 23014 kPa	815.41
312.96 K, 24003 kPa	816.04
312.96 K, 25037 kPa	816.73
322.89 K, 520 kPa	792.06
322.89 K, 1010 kPa	792.47
322.89 K, 2005 kPa	793.27
322.89 K, 3007 kPa	794.07
322.89 K, 4005 kPa	794.86
322.89 K, 5018 kPa	795.63
322.89 K, 6001 kPa	796.42
322.89 K, 7016 kPa	797.2
322.89 K, 8020 kPa	797.97
322.89 K, 8997 kPa	798.71
322.89 K, 10001 kPa	799.47
322.89 K, 11005 kPa	800.21
322.89 K, 11996 kPa	800.95
322.89 K, 13002 kPa	801.68
322.89 K, 14013 kPa	802.4
322.89 K, 15005 kPa	803.11
322.89 K, 16014 kPa	803.82
322.89 K, 17001 kPa	804.51
322.89 K, 18016 kPa	805.21
322.89 K, 19012 kPa	805.89
322.89 K, 19992 kPa	806.56
322.89 K, 21036 kPa	807.26
322.89 K, 22003 kPa	807.92
322.89 K, 23024 kPa	808.61
322.89 K, 23994 kPa	809.26
322.89 K, 25023 kPa	810
332.79 K, 493 kPa	784.29
332.79 K, 1014 kPa	784.76
332.79 K, 2006 kPa	785.61
332.79 K, 3025 kPa	786.48
332.79 K, 4011 kPa	787.28
332.79 K, 5020 kPa	788.11
332.79 K, 6003 kPa	788.91
332.79 K, 6997 kPa	789.73
332.79 K, 8009 kPa	790.54
332.79 K, 8995 kPa	791.31
332.79 K, 9996 kPa	792.12
332.79 K, 11018 kPa	792.9
332.79 K, 11995 kPa	793.66
332.79 K, 13023 kPa	794.45
332.79 K, 13999 kPa	795.19
332.79 K, 15010 kPa	795.95
332.79 K, 16028 kPa	796.68
332.79 K, 17003 kPa	797.41
332.79 K, 18040 kPa	798.14
332.79 K, 19004 kPa	798.84
332.79 K, 20035 kPa	799.59
332.79 K, 21024 kPa	800.29
332.79 K, 21993 kPa	800.97
332.79 K, 23039 kPa	801.71
332.79 K, 24015 kPa	802.4
332.79 K, 25022 kPa	803.12
342.76 K, 505 kPa	776.31
342.76 K, 997 kPa	776.77
342.76 K, 1995 kPa	777.69
342.76 K, 3011 kPa	778.59
342.76 K, 4012 kPa	779.47
342.76 K, 5011 kPa	780.34
342.76 K, 6011 kPa	781.22
342.76 K, 7003 kPa	782.03
342.76 K, 8015 kPa	782.91
342.76 K, 9000 kPa	783.73
342.76 K, 10019 kPa	784.58
342.76 K, 11020 kPa	785.4
342.76 K, 12002 kPa	786.2
342.76 K, 13016 kPa	787.02
342.76 K, 14024 kPa	787.81
342.76 K, 15002 kPa	788.59
342.76 K, 16007 kPa	789.36
342.76 K, 17037 kPa	790.15
342.76 K, 17988 kPa	790.87
342.76 K, 19037 kPa	791.66
342.76 K, 20003 kPa	792.38
342.76 K, 21015 kPa	793.14
342.76 K, 22019 kPa	793.88
342.76 K, 23039 kPa	794.62
342.76 K, 24027 kPa	795.36
342.76 K, 25028 kPa	796.1
352.71 K, 508 kPa	768.15
352.71 K, 1011 kPa	768.66
352.71 K, 1995 kPa	769.61
352.71 K, 3014 kPa	770.57
352.71 K, 3998 kPa	771.49
352.71 K, 5022 kPa	772.45
352.71 K, 6012 kPa	773.35
352.71 K, 7006 kPa	774.26
352.71 K, 8024 kPa	775.17
352.71 K, 9005 kPa	776.05
352.71 K, 10016 kPa	776.94
352.71 K, 11026 kPa	777.81
352.71 K, 12001 kPa	778.65
352.71 K, 13002 kPa	779.5
352.71 K, 14026 kPa	780.35
352.71 K, 15000 kPa	781.18
352.71 K, 16005 kPa	781.98
352.71 K, 17023 kPa	782.81
352.71 K, 18003 kPa	783.59
352.71 K, 19049 kPa	784.43
352.71 K, 20035 kPa	785.2
352.71 K, 21002 kPa	785.96
352.71 K, 21995 kPa	786.73
352.71 K, 23020 kPa	787.52
352.71 K, 24045 kPa	788.32
352.71 K, 25009 kPa	789.05
362.59 K, 517 kPa	759.7
362.59 K, 1023 kPa	760.25
362.59 K, 2005 kPa	761.26
362.59 K, 3010 kPa	762.29
362.59 K, 3998 kPa	763.28
362.59 K, 5006 kPa	764.25
362.59 K, 6013 kPa	765.23
362.59 K, 7014 kPa	766.21
362.59 K, 8007 kPa	767.16
362.59 K, 9020 kPa	768.1
362.59 K, 10006 kPa	769.02
362.59 K, 10991 kPa	769.93
362.59 K, 12025 kPa	770.87
362.59 K, 13008 kPa	771.76
362.59 K, 13998 kPa	772.62
362.59 K, 15017 kPa	773.51
362.59 K, 16000 kPa	774.37
362.59 K, 17013 kPa	775.24
362.59 K, 18032 kPa	776.11
362.59 K, 19003 kPa	776.9
362.59 K, 20030 kPa	777.77
362.59 K, 20987 kPa	778.55
362.59 K, 22033 kPa	779.4
362.59 K, 23000 kPa	780.2
362.59 K, 24031 kPa	781.02
362.59 K, 25026 kPa	781.82
